# Assays:
# dyslipidemic patients = test: Anti-atherogenic effect of MNA after a single administration, plasma lipids; format: in vivo, human; details: for HDL % / TG % / TG/HDL % / Total Cholesterol %: change vs time 0; for TG: person
# Procedure: The anti-atherogenic effect of NINA after single administration was also investigated in dyslipidemic patients. The patient was treated with 100 mg MNA. The plasma levels of TC, TG, and HDL were measured at baseline and after 1 and 3 hours. The level of LDL was not measured due to high TG level. […] The increase of the HDL (24.8 vs. 29.0 mg/dl) was observed after the administration. The significant reduction of TG/HDL ratio (24.0 vs. 16.5) was observed.
# various cell lines = test: Cytoprotection of cell lines; format: cell-based
# [1] = system: rats fed a hypertriglyceridemic diet; test: Rat model of hypertriglyceridemia (high-fructose diet), plasma triglyceride; format: in vivo; details: Wistar rats, AIN93 diet with 60% fructose 8 weeks; 100 mg/kg MNA in drinking water for the last 4 weeks; FIG. 1
# Procedure: Rats fed a high-fructose diet develop hypertriglyceridemia, insulin resistance and a mild degree of hypertension abnormalities that mimic metabolic syndrome in humans (Boehm and Claudi-Boehm, Scand J Clin Lab Invest Suppl. 2005; 240:3-13). […] One group was fed a control diet (basal AIN93) for 8 weeks, the second was fed an AIN93 diet supplemented with 60% fructose for 8 weeks, and the third was fed an AIN93 diet supplemented with 60% fructose that was additionally treated with 100 mg/kg of MNA for the last 4 weeks (after hypertriglicerydemia fully develops) and was given to drinking water. At the end of experiments rats were anesthetized, and blood was withdrawn and anticoagulated. Triglyceride level in plasma was measured by standard spectophotometric technique using commercially available kits.
# [2] = system: patients on permanent therapy with simvastatin; test: Safety of co-administration of MNA with statins; format: in vivo, human
# Procedure: A group of 10 patients (4 females and 6 males, ages 38-79) on permanent therapy with simvastatin (10-20 mg/day) were selected for the study. In addition to simvastatin each patient received MNA in daily dose of 90 mg/day for six weeks. The clinical chemistry parameters were monitored during three doctor's visits: two weeks before, just before and after six weeks of MNA administration.
# [3] = MNA 90 mg/day for six weeks co-administered with simvastatin (10-20 mg/day), 10 patients
substance,measurement,setting,value
1-methylnicotinamide chloride [MNA],TG/HDL ratio,dyslipidemic patients; after the administration of 100 mg MNA (base-line 24.0),16.5
same,HDL,dyslipidemic patients; after the administration of 100 mg MNA (base-line 24.8),29.0 mg/dL
same,TG level,dyslipidemic patients; after the administration of 100 mg MNA (base-line 596),479 mg/dL
same,HDL %,"dyslipidemic patients; single 100 mg MNA, 1 h",2.82%
same,TG %,"dyslipidemic patients; single 100 mg MNA, 1 h",−5.03%
same,TG/HDL %,"dyslipidemic patients; single 100 mg MNA, 1 h",−7.64%
same,Total Cholesterol %,"dyslipidemic patients; single 100 mg MNA, 1 h",1.08%
same,HDL %,"dyslipidemic patients; single 100 mg MNA, 3 h",16.94%
same,TG %,"dyslipidemic patients; single 100 mg MNA, 3 h",-19.63%
same,TG/HDL %,"dyslipidemic patients; single 100 mg MNA, 3 h",−31.27%
same,Total Cholesterol %,"dyslipidemic patients; single 100 mg MNA, 3 h",4.84%
same,TG,"dyslipidemic patients; single 100 mg MNA, 1 h",566 mg/dL
same,TG,"dyslipidemic patients; single 100 mg MNA, 3 h",479 mg/dL
same,HDL,"dyslipidemic patients; single 100 mg MNA, 1 h",25.5 mg/dL
same,TG/HDL,"dyslipidemic patients; single 100 mg MNA, 1 h",22.20
same,Total Cholesterol,"dyslipidemic patients; single 100 mg MNA, 1 h",188 mg/dL
same,HDL,"dyslipidemic patients; single 100 mg MNA, 3 h",29.0 mg/dL
same,TG/HDL,"dyslipidemic patients; single 100 mg MNA, 3 h",16.52
same,Total Cholesterol,"dyslipidemic patients; single 100 mg MNA, 3 h",195 mg/dL
same,Cytoprotection,various cell lines,cytoprotective
same,Triglyceride level in plasma,[1],lowers triglyceride levels
same,"Clinical chemistry parameters (liver enzymes AST and ALT, creatinine, urea, glucose and homocysteine)",[2]; [3],not changed within the measurements accuracy
same,Negative effects on patient examination,[2]; [3],no negative effects were observed
same,Adverse synergistic effects,[2]; MNA co-administration with statins,does not result in any adverse synergistic effects

# — US8211922B2, “1-methylnicotinamide derivatives and formulations for treatment of lipoprotein abnormalities” (Cortria Corporation, priority 2005, dated 2012)
